The text below walks through data of paper PMC9780942, “Antimicrobial Activity and Immunomodulatory Properties of Acidocin A, the Pediocin-like Bacteriocin with the Non-Canonical Structure” (Membranes, 2022).

One assay deals with L. monocytogenes EGD. The assay is classed as cell-based, Listeria monocytogenes. The following applies: 24 h. How it is done: (§1) Antibacterial activity of recombinant bacteriocins against a number of Gram-positive and Gram-negative bacteria (Table S2) was determined by the method of two-fold serial dilutions in a liquid medium. Two-fold serial dilutions of bacteriocins were prepared in sterile 96-well flat-bottom polystyrene microplates (Eppendorf, Hamburg, Germany) (Cat. No. 0030730.011) in a volume of 50 µL of sterile 0.1% bovine serum albumin (BSA) (SERVA Electrophoresis GmbH, Heidelberg, Germany) to prevent non-specific sorption of peptides to the surface of the plate wells [23]. Mid-log phase bacterial cultures were diluted with the 2x Mueller-Hinton broth (MHB) (Sigma-Aldrich, St. Louis, MO, USA) to a final cell concentration of 10^6 colony forming units (CFU) per mL. To determine the activity of bacteriocins against Listeria and Enterococci, 3% tryptic soy broth (TSB) (Merck-Millipore, Burlington, MA, USA) was used instead of MHB. Aliquots of 50 μL of diluted bacterial suspensions were added to each well of the plate, which was then incubated at 37 °C and 950 rpm for 24 h using thermostatable plate shaker PST-60HL-4 (Biosan, Riga, Latvia). As a negative control, 50 µL of the sterile growth medium (2xMHB or 6% TSB) was added to the wells containing 50 µL of 0.1% BSA. The values of the minimum inhibitory concentrations (MIC) were determined as the minimum concentration of the peptide, at which there was no visible growth of bacterial culture. Incubation for 2 h with 20 µg/mL chromogenic substrate resazurin (Sigma-Aldrich, St. Louis, MO, USA) was used to detect viable bacterial cells if they were difficult to visually detect. To study the effect of inorganic salts on the antimicrobial activity of bacteriocins, antibacterial activity assay was carried out in MHB medium supplemented with 0.9% NaCl.

A further assay has as its system L. lactis MK43. Nature of the assay: Antibacterial activity assay (MIC), two-fold serial dilutions in liquid medium. The assay is classed as cell-based. The following applies: for Minimum inhibitory concentration in the presence of NaCl: MHB supplemented with 0.9% NaCl; for Minimum Inhibitory Concentration: MHB, 0.1% BSA, 37 °C, 24 h, no visible growth. How it is done:
as §1

The subject of the next assay is A. baumannii XDR CI 2675. The assay is classed as cell-based. The following applies: XDR CI 2675, 24 h. How it is done:
as §1

For the next assay, the system named is B. licheniformis B-511. It is filed as cell-based. As to conditions: 24 h. As for the experimental part:
as §1

The subject of the next assay is B. subtilis B-886. The assay is classed as cell-based. As to conditions: B-886, 24 h. How it is done: as §1
The next assay deals with E. coli ATCC 25922. It is filed as cell-based. As to conditions: ATCC 25922, 24 h. As for the experimental part:
as §1

Another assay relates to E. coli ML-35p. The assay is classed as cell-based. The following applies: 24 h. As for the experimental part: as §1
The test system of another assay is E. coli SQ110. The assay is classed as cell-based. The following applies: SQ110, 24 h. How it is done: as §1
In a further assay the test system is E. coli XDR CI 1057. The assay is classed as cell-based. As to conditions: XDR CI 1057, 24 h. How it is done:
as §1

For the next assay, the system named is L. lactis MK66. It is filed as cell-based. As to conditions: MK66, 24 h. As for the experimental part:
as §1

A further assay deals with M. luteus Ac-2229. The assay is classed as cell-based. The following applies: Ac-2229, 24 h. How it is done:
as §1

Another assay concerns M. phlei Ac-1221. The assay is classed as cell-based. As to conditions: 24 h. As for the experimental part: as §1
Assay [1] deals with P. aeruginosa MDR CI 1995. It is filed as cell-based. As to conditions: MDR CI 1995, 24 h. As for the experimental part: as §1
The subject of another assay is S. aureus 209P. The assay is classed as cell-based. As to conditions: 24 h. How it is done: as §1

Positions of bridges follow the written chain, without caps; N, C: chain ends. Residues, ends and D or L forms follow the SMILES beside them. No end group written: not given here.

“KTYYGTNAVHCTKKSLWGKVRLKNVIPGTLCRKQSLPIKQDLKILLGWATGAFGKTFH (disulfide 11-31) [AcdA(G8A)]”: the “Minimum Inhibitory Concentration” value was greater than 32 µM in the assay with L. monocytogenes EGD; 4 µM in the assay on L. lactis MK43; 8 µM in the assay on A. baumannii XDR CI 2675; 8 µM in the assay with B. licheniformis B-511; 8 µM with B. subtilis B-886; 16 µM with E. coli ATCC 25922. Also, the “Minimum Inhibitory Concentration” value in the assay with E. coli ML-35p is recorded as 8 µM; in the assay on E. coli SQ110, 4 µM; in the assay with E. coli XDR CI 1057 it was 8 µM; in the assay on L. lactis MK66 it was 2 µM; in the assay with M. luteus Ac-2229, 16 µM; in the assay on M. phlei Ac-1221 it was 2 µM. Moreover, the “Minimum Inhibitory Concentration” value in [1] stood at 16 µM; in the assay on S. aureus 209P, 8 µM. Besides, the “Minimum inhibitory concentration in the presence of NaCl” value is reported as greater than 32 µM in the assay on L. lactis MK43; greater than 32 µM with B. licheniformis B-511; greater than 32 µM in the assay on B. subtilis B-886; 16 µM in the assay with E. coli ML-35p; 32 µM in the assay on E. coli SQ110; greater than 32 µM in the assay with L. lactis MK66.

For “KTYYGTNGVHCTKKSLWGKVRLKNVIPGTLCRKQSLPIKQDLKILLGWATGAFGKTFH (cysteines drawn unpaired) [AcdA (DTT reduced)]”, the “Minimum Inhibitory Concentration” value in the assay on L. monocytogenes EGD was greater than 32 µM; with L. lactis MK43 it was 2 µM; with A. baumannii XDR CI 2675 it was 8 µM; with B. licheniformis B-511, 4 µM; in the assay with B. subtilis B-886, 4 µM; in the assay on E. coli ATCC 25922, 8 µM. The “Minimum Inhibitory Concentration” value stood at 4 µM in the assay with E. coli ML-35p; 4 µM in the assay on E. coli SQ110; 16 µM with E. coli XDR CI 1057; 1 µM in the assay with L. lactis MK66; 16 µM with M. luteus Ac-2229; 4 µM in the assay on M. phlei Ac-1221. Besides, the “Minimum Inhibitory Concentration” value is recorded as greater than 32 µM in assay [1] and 16 µM with S. aureus 209P.

Turning to `CC[C@H](C)[C@H](NC(=O)[C@H](Cc1ccc(O)cc1)NC(=O)[C@@H](NC(=O)[C@@H](NC(=O)[C@H](CC(N)=O)NC(=O)[C@H](CCC(N)=O)NC(=O)[C@H](CC(=O)O)NC(=O)[C@H](Cc1ccc(O)cc1)NC(=O)[C@H](CCCCN)NC(=O)[C@@H](NC(=O)[C@H](CC(N)=O)NC(=O)[C@H](CCCCN)NC(=O)[C@H](CC(C)C)NC(=O)[C@H](CCCNC(=N)N)NC(=O)[C@@H](NC(=O)[C@H](CCCCN)NC(=O)CNC(=O)[C@H](Cc1c[nH]c2ccccc12)NC(=O)[C@H](CC(C)C)NC(=O)[C@H](CO)NC(=O)[C@H](CC(N)=O)NC(=O)[C@H](CCCCN)NC(=O)[C@@H](NC(=O)[C@H](CS)NC(=O)[C@H](Cc1c[nH]cn1)NC(=O)[C@@H](NC(=O)CNC(=O)[C@H](CC(N)=O)NC(=O)[C@@H](NC(=O)CNC(=O)[C@H](Cc1ccc(O)cc1)NC(=O)[C@H](Cc1ccc(O)cc1)NC(=O)[C@@H](NC(=O)[C@@H](N)CCCCN)[C@@H](C)O)[C@@H](C)O)C(C)C)[C@@H](C)O)C(C)C)C(C)C)[C@@H](C)O)[C@@H](C)O)C(=O)NCC(=O)N[C@@H](CCCNC(=N)N)C(=O)N[C@@H](CC(C)C)C(=O)N[C@@H](CCC(N)=O)C(=O)N[C@@H](CC(=O)O)C(=O)N[C@H](C(=O)N[C@@H](CC(C)C)C(=O)N[C@@H](CC(C)C)C(=O)NCC(=O)N[C@@H](Cc1c[nH]c2ccccc12)C(=O)N[C@@H](C)C(=O)N[C@H](C(=O)NCC(=O)N[C@@H](C)C(=O)N[C@@H](Cc1ccccc1)C(=O)NCC(=O)N[C@@H](CCCCN)C(=O)N[C@H](C(=O)N[C@@H](Cc1ccccc1)C(=O)N[C@@H](Cc1c[nH]cn1)C(=O)O)[C@@H](C)O)[C@@H](C)O)[C@@H](C)CC` [OR-7(VI) (DTT reduced)] (H-KTYYGTNGVHCTKNSLWGKVRLKNVKYDQNTTYIGRLQDILLGWATGAFGKTFH-OH; N-terminus and C-terminus assumed), the “Minimum Inhibitory Concentration” value is recorded as greater than 32 µM with L. monocytogenes EGD; greater than 32 µM in the assay with L. lactis MK43; greater than 32 µM with A. baumannii XDR CI 2675; 8 µM with B. licheniformis B-511; 16 µM in the assay on B. subtilis B-886; greater than 32 µM with E. coli ATCC 25922. Also, the “Minimum Inhibitory Concentration” value with E. coli ML-35p is greater than 32 µM; in the assay with E. coli SQ110 it was greater than 32 µM; in the assay with E. coli XDR CI 1057 it was greater than 32 µM; with L. lactis MK66 it was 4 µM; in the assay on M. luteus Ac-2229 it was greater than 32 µM; with M. phlei Ac-1221, 32 µM. Moreover, the “Minimum Inhibitory Concentration” value (in [1]; in the assay with S. aureus 209P) was greater than 32 µM in each case.

As to “HCTKKSLWGKVRLKNVIPGTLCRKQSLPIKQDLKILLGWATGAFGKTFH (disulfide 2-22) [AcdA(d9)]”, the “Minimum Inhibitory Concentration” value is given as greater than 32 µM in the assay on L. monocytogenes EGD; 8 µM in the assay on L. lactis MK43; 4 µM in the assay with A. baumannii XDR CI 2675; 8 µM in the assay on B. licheniformis B-511; 8 µM in the assay on B. subtilis B-886; 16 µM in the assay on E. coli ATCC 25922. Also, the “Minimum Inhibitory Concentration” value in the assay on E. coli ML-35p came to 4 µM; in the assay with E. coli SQ110, 8 µM; with E. coli XDR CI 1057, 8 µM; in the assay on L. lactis MK66 it was 2 µM; in the assay on M. luteus Ac-2229, 16 µM; in the assay with M. phlei Ac-1221 it was 4 µM. Also, the “Minimum Inhibitory Concentration” value (in assay [1]; in the assay on S. aureus 209P) was 16 µM each time. The “Minimum inhibitory concentration in the presence of NaCl” value in the assay on L. lactis MK43 is on record as greater than 32 µM; in the assay on B. licheniformis B-511 it was greater than 32 µM; in the assay with B. subtilis B-886 it was greater than 32 µM; with E. coli ML-35p, 16 µM; in the assay on E. coli SQ110, 32 µM; with L. lactis MK66, greater than 32 µM.

Turning to “KTYYGNGVHCTKKSLWGKVRLKNVIPGTLCRKQSLPIKQDLKILLGWATGAFGKTFH (disulfide 10-30) [AcdA(dT)]”, the “Minimum Inhibitory Concentration” value with L. monocytogenes EGD is greater than 128 µM; in the assay on L. lactis MK43, 1 µM; in the assay on A. baumannii XDR CI 2675 it was 4 µM; in the assay with B. licheniformis B-511, 2 µM; in the assay with B. subtilis B-886, 2 µM; in the assay on E. coli ATCC 25922, 4 µM. In addition, the “Minimum Inhibitory Concentration” value in the assay with E. coli ML-35p is recorded as 2 µM; with E. coli SQ110, 1 µM; in the assay on E. coli XDR CI 1057, 8 µM; with L. lactis MK66, 0.5 µM; in the assay on M. luteus Ac-2229, 8 µM; in the assay on M. phlei Ac-1221, 2 µM. In addition, the “Minimum Inhibitory Concentration” value is 16 µM in assay [1] and 8 µM in the assay with S. aureus 209P. In addition, the “Minimum inhibitory concentration in the presence of NaCl” value in the assay with L. lactis MK43 is listed as greater than 32 µM; with B. licheniformis B-511 it was greater than 32 µM; in the assay with B. subtilis B-886, greater than 32 µM; in the assay with E. coli ML-35p, 16 µM; with E. coli SQ110 it was 8 µM; in the assay with L. lactis MK66, 32 µM.
